Laboratory results reported in PubChem BioAssay (NCI).
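These data come from cells grown in 96-well plates and exposed to compound for 48 hours at five concentrations. At the TGI there is no net growth.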

Legend:
Assay in all cases: NCI tumour cell line growth inhibition, 48 h
[1] = tested on: IGROV1 ovarian
[2] = tested on: SK-MEL-5 melanoma
[3] = tested on: T-47D breast
[4] = tested on: RXF 393 renal
[5] = tested on: MALME-3M melanoma
[6] = tested on: OVCAR-8 ovarian
[7] = tested on: RPMI-8226 leukemia
[8] = tested on: SNB-19 CNS
[9] = tested on: MCF7 breast
[10] = tested on: MDA-MB-231 breast
[11] = tested on: A549 NSCLC
[12] = tested on: HCC-2998 colon
[13] = tested on: NCI-H23 lung
[14] = tested on: OVCAR-3 ovarian
[15] = tested on: SF-268 CNS
[16] = tested on: A498 renal
[17] = tested on: SN12C renal
[18] = tested on: KM12 colon
[19] = tested on: OVCAR-4 ovarian
[20] = tested on: HL-60(TB) leukemia
[21] = tested on: ACHN renal
[22] = tested on: SK-MEL-28 melanoma
[23] = tested on: OVCAR-5 ovarian
[24] = tested on: BT-549 breast
[25] = tested on: NCI-H522 lung
[26] = tested on: UO-31 renal
[27] = tested on: COLO 205 colon
[28] = tested on: SF-295 CNS
[29] = tested on: UACC-257 melanoma
[30] = tested on: CAKI-1 renal
[31] = tested on: EKVX NSCLC
[32] = tested on: MDA-N
[33] = tested on: NCI/ADR-RES ovarian
[34] = tested on: CCRF-CEM leukemia
[35] = tested on: HS 578T breast
[36] = tested on: PC-3 prostate
[37] = tested on: MDA-MB-435
[38] = tested on: K-562 leukemia
[39] = tested on: SF-539 CNS
[40] = tested on: HOP-62 NSCLC
[41] = tested on: UACC-62 melanoma
[42] = tested on: DU-145 prostate
[43] = tested on: 786-0 renal
[44] = tested on: LOX IMVI melanoma
[45] = tested on: NCI-H226 lung
[46] = tested on: HCT-15 colon
[47] = tested on: SK-OV-3 ovarian
[48] = tested on: HT29 colon
[49] = tested on: HOP-92 NSCLC
[50] = tested on: SW-620 colon
[51] = tested on: MOLT-4 leukemia
[52] = tested on: U251 CNS
[53] = tested on: SK-MEL-2 melanoma
[54] = tested on: TK-10 renal
[55] = tested on: NCI-H460 lung
[56] = tested on: HCT-116 colon
[57] = tested on: M14 melanoma
[58] = tested on: SR leukemia
[59] = tested on: SNB-75 CNS

c1cc(Sc2nc(Sc3ccncc3)nc(Sc3ccncc3)n2)ccn1
TGI [1]: > 100 µM
TGI [2]: > 100 µM
TGI [3]: > 100 µM
TGI [4]: > 100 µM
TGI [5]: > 100 µM
TGI [6]: > 100 µM
TGI [7]: > 100 µM
TGI [8]: > 100 µM
TGI [9]: > 100 µM
TGI [10]: > 100 µM
TGI [11]: > 100 µM
TGI [12]: > 100 µM
TGI [13]: > 100 µM
TGI [14]: > 100 µM
TGI [15]: > 100 µM
TGI [16]: > 100 µM
TGI [17]: > 100 µM
TGI [18]: > 100 µM
TGI [19]: > 100 µM
TGI [20]: > 100 µM
TGI [21]: > 100 µM
TGI [22]: > 100 µM
TGI [23]: > 100 µM
TGI [24]: > 100 µM
TGI [25]: > 100 µM
TGI [26]: > 100 µM
TGI [27]: > 100 µM
TGI [28]: > 100 µM
TGI [29]: > 100 µM
TGI [30]: > 100 µM
TGI [31]: > 100 µM
TGI [32]: > 100 µM
TGI [33]: > 100 µM
TGI [34]: > 100 µM
TGI [35]: > 100 µM
TGI [36]: > 100 µM
TGI [37]: > 100 µM
TGI [38]: > 100 µM
TGI [39]: > 100 µM
TGI [40]: > 100 µM
TGI [41]: > 100 µM
TGI [42]: > 100 µM
TGI [43]: > 100 µM
TGI [44]: > 100 µM
TGI [45]: > 100 µM
TGI [46]: > 100 µM
TGI [47]: > 100 µM
TGI [48]: > 100 µM
TGI [49]: > 100 µM
TGI [50]: > 100 µM
TGI [51]: > 100 µM
TGI [52]: > 100 µM
TGI [53]: > 100 µM
TGI [54]: > 100 µM
TGI [55]: > 100 µM
TGI [56]: > 100 µM
TGI [57]: > 100 µM

c1ccc(N=C(Nc2ccccc2)N2CCCCC2)cc1
TGI [1]: > 100 µM
TGI [3]: > 100 µM
TGI [5]: > 100 µM
TGI [6]: > 100 µM
TGI [7]: > 100 µM
TGI [8]: > 100 µM
TGI [9]: > 100 µM
TGI [11]: > 100 µM
TGI [13]: > 100 µM
TGI [14]: > 100 µM
TGI [15]: > 100 µM
TGI [17]: > 100 µM
TGI [18]: > 100 µM
TGI [19]: > 100 µM
TGI [20]: > 100 µM
TGI [21]: > 100 µM
TGI [22]: > 100 µM
TGI [23]: > 100 µM
TGI [24]: > 100 µM
TGI [58]: > 100 µM
TGI [25]: > 100 µM
TGI [26]: > 100 µM
TGI [27]: > 100 µM
TGI [28]: > 100 µM
TGI [29]: 68.9 µM
TGI [30]: > 100 µM
TGI [31]: > 100 µM
TGI [32]: > 100 µM
TGI [33]: > 100 µM
TGI [34]: > 100 µM
TGI [35]: > 100 µM
TGI [36]: > 100 µM
TGI [37]: > 100 µM
TGI [38]: > 100 µM
TGI [59]: > 100 µM
TGI [40]: > 100 µM
TGI [41]: > 100 µM
TGI [43]: > 100 µM
TGI [44]: > 100 µM
TGI [45]: > 100 µM
TGI [46]: > 100 µM
TGI [47]: > 100 µM
TGI [48]: > 100 µM
TGI [49]: > 100 µM
TGI [50]: > 100 µM
TGI [51]: > 100 µM
TGI [52]: > 100 µM
TGI [53]: > 100 µM
TGI [54]: > 100 µM
TGI [55]: > 100 µM
TGI [56]: > 100 µM
TGI [57]: 84.9 µM
